Measured values taken from BindingDB's records for doi:10.1021/cb400100g (University of Massachusetts Medical School, 2013).

Target: Genome polyprotein (Hepatitis C virus genotype 1a (isolate H77), UniProt P27958)
Assay: Enzyme Inhibition Assay
Protocol: NS3/4A protease was preincubated with increasing concentration of drugs in protease reaction buffer for 1 hour. Inhibition assays were performed in a reaction volume of 60μL. The reaction was initiated by the rapid injection of 5μL of HCV NS3/4A protease substrate to a final concentration of 200nM.

Sequence of Genome polyprotein (P27958 1027-1657 limits assumed): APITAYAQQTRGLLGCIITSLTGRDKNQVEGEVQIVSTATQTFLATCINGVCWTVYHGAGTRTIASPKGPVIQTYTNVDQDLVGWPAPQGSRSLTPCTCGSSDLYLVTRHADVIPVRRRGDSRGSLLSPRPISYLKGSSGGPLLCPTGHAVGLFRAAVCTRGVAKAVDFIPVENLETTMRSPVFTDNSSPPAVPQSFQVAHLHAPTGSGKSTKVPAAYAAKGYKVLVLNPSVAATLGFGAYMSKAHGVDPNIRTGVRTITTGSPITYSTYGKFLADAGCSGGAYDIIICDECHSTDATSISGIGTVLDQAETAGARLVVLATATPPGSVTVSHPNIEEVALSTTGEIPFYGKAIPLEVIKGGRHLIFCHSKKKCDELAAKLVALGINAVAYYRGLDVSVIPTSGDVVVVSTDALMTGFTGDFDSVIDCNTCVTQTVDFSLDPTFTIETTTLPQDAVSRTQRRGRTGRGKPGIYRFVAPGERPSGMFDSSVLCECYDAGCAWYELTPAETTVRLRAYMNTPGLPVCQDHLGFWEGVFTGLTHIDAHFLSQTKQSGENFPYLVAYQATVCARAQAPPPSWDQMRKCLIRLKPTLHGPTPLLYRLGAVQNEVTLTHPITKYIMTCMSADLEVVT
Sequence of Genome polyprotein (P27958 1658-1711 limits assumed): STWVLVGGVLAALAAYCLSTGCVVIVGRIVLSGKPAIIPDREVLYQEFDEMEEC

C=C[C@@H]1C[C@]1(NC(=O)[C@@H]1CC2CN1C(=O)[C@H](C(C)(C)C)NC(=O)O[C@@H]1C[C@H]1CCCCCc1nc3ccc(OC)cc3nc1O2)C(=O)NS(=O)(=O)C1CC1 (stereo partly drawn) [MK-5172]
Ki: 0.06 nM

CC[C@@H]1C[C@]1(NC(=O)[C@@H]1C[C@@H]2CN1C(=O)[C@H](C(C)(C)C)NC(=O)OCC(C)(C)CCCCc1cccc3c1CN(C3)C(=O)O2)C(=O)NS(=O)(=O)C1CC1 [Vaniprevir]
Ki: 0.46 nM

C=C[C@@H]1C[C@]1(NC(=O)C1C[C@@H]2CN1C(=O)[C@H](C(C)(C)C)NC(=O)OCC(C)(C)CCCCc1cccc3c1CN(C3)C(=O)O2)C(=O)NS(=O)(=O)C1CC1 (stereo partly drawn) [Dan-mcP2P4]
Ki: 0.22 nM
